The text below walks through data of patent publication US4033992A, “Novel compounds of the 11-deoxyprostaglandin E3, R3α, and F3β series” (priority 1975, dated 1977).

Assay [1] deals with gastric acid secretion. The experiment in a line: Gastric acid secretion inhibitory action, modified "Shay rat" procedure. It counts as in vivo, rats (male, CFE strain). Particulars: 3 hours. The protocol:
The novel compounds of the present invention (and those wherein R2 is hydroxy when X is keto and Y is ethylene) are effective inhibitors of gastric acid secretion and of ulcer development in experimental animals, and thus are potentially valuable as agents for the control of gastric acid secretion and of gastric erosion and as anti-ulcer agents. Gastric acid secretion inhibitory action was measured by the "Shay rat" procedure with some modifications as follows.
The rats (male, CFE strain) were starved for 48 hours (water was given ad libitum) to permit evacuation of stomach contents. On the morning of the experiment, under ether anesthesia, the abdominal region was shaved and a midline incision (1-1 1/2") was made with a scapel. With the help of a closed curved hemostate the duodenum was picked up. Upon getting the duodenum into view, fingers were used to pull the stomach through the opening, the stomach was then gently manipulated with fingers to rid the stomach of air and residual matter which were pushed through the pylorus. Two-5 inch sutures were drawn under the pyloric-duodenal juncture. A ligature, at the juncture, was formed with one of the threads. The second ligature was also formed but not tightened.
The test compound or the vehicle, usually 1 ml./100 g. body weight, were injected into the duodenum as close as possible to the first ligature. […]
The abdominal cavity was exposed by cutting with scissors and the esophagus close to the stomach was clamped off with a hemostat, the stomach was removed by cutting above the hemostat (the esophagus was cut) and between the two sutures. […] The supernatant was collected, volume measured and recorded, 2 drops of a phenolphthalein indicator (1% in 95% ethanol) were added and the solution was titrated with 0.02 N NaOH (or with 0.04 N NaOH when large volumes of stomach contents were encountered) to pH 8.4 (because of usual coloring of the stomach contents, phenolphthalein was only used to permit visual indication that the end point was near) and the amount of acid present was calculated. […]

Assay [2] relates to ulcers. Put plainly: Indomethacin-induced ulcer assay (anti-ulcer). It counts as in vivo, Rats. The settings on record: Indomethacin 20 mg./kg. s.c., score 0-4. The protocol: Another assay useful for determining potential anti-ulcer agents is carried out in the following manner.
Rats were starved for 48 hours (water was given as libitum). Indomethacin (20 mg./kg. of body weight) was administered by the subcutaneous route and one-half the dose of the test compound was administered by gavage at the same time. After three hours, the second half of the test compound was administered also by gavage. Five hours after the administration of Indomethacin the animals were decapitated and the stomachs removed. The stomachs were washed with distilled water, blotted on gauze, cut along the larger curvature, and the contents rinsed with distilled water. The stomachs were spread out, pinned on a cork and visualized under magnifying glass for ulcers. The critera for scoring of ulcers was as previously reported. [Abdel-Galil et al. Brit. J. Pharmac. Chemotherapy 33:1-14 (1968)].
1-- Petechial hemmorrhage or pin point ulcers
3-- Many ulcers, a few large
4-- Many ulcers, mainly large
Control animals treated with Indomethacin but not test compound consistently give scores of about 2.5-3.5. Control animals treated with neither Indomethacin nor test compound give scores of about 0.5-0.8. Compounds diminishing the control ulcer score by 0.5 unit or more are considered to be active

Assay [3] concerns bronchospasms elicited by intravenous injections of 5-hydroxytryptamine, histamine, or acetylchlorine. Put plainly: Bronchodilator activity by the Konzett procedure. It is filed as in vivo, guinea pigs. Particulars: Cavia porcellus, three logarithmic cumulative intravenous doses. The protocol: Bronchodilator activity was determined in guinea pigs against bronchospasms elicited by intravenous injections of 5-hydroxytryptamine, histamine, or acetylchlorine by the Konzett procedure. [See J. Lulling, P. Lievens, F. El Sayed and J. Prignot, Arzneimittel-Forschung, 18,995 (1968).] This activity is expressed as an ED50 determined from the results obtained with three logarithmic cumulative intravenous doses.

Where [4] appears, read: intraduodenal dose 50 mg./kg. of body weight.

Consider `CCCCC[C@H](O)/C=C/[C@H]1CCC(=O)[C@@H]1C/C=C\CCCC(=O)O` [l-11-deoxyprostaglandin E2, 11-deoxyprostaglandin E2], for which the “Percent Inhibition (gastric acid secretion)” value in assay [1] (intraduodenal dose 12.5 mg./kg. of body weight) is reported as 42%; in assay [1] (setting [4]), 97%. Also, the “Score, Treated Animals (ulcer score)” value in assay [2] (total oral dose 12.5 mg./kg. of body weight, Controls 2.7) turned out to be 1.2. Further, the ED50 was determined as 5.2 µg/kg in assay [3] (spasmogenic agent 5-hydroxytryptamine), 10 µg/kg in assay [3] (spasmogenic agent acetylcholine) and 5.2 µg/kg in assay [3] (spasmogenic agent histamine).

As to `CCCCC[C@H](O)/C=C/[C@H]1CC[C@H](O)[C@@H]1C/C=C\CCCC(=O)O` [l-11-deoxyprostaglandin F2 α, 11-deoxyprostaglandin F2 α], the “Percent Inhibition (gastric acid secretion)” value in assay [1] (setting [4]) worked out at 98%. For the same compound, the “Score, Treated Animals (ulcer score)” value in assay [2] (total oral dose 50 mg./kg. of body weight, Controls 2.8) amounted to 1.3.
